Reference: patent US8759333B2, “Di-azetidinyl diamide as monoacylglycerol lipase inhibitors” (Janssen Pharmaceutica, NV, priority 2010, dated 2014)
Changes are numbered by the printed parent chain.

What was measured:
[1] = test system: tail flick; details: intravenous delivery (Mechoulam et al.); cited from earlier work
[2] = test system: hot plate; details: cited from earlier work
[3] = molecular target: T1, MGL (Rattus norvegicus, UniProt Q8R431); experiment: 2-AG Accumulation Assay in rat brain homogenate; assay type: biochemical; details: percent of vehicle; for activity at 1 µM: compound @1 µM, read-out: Rat Brain 2AG % VehCntrl (%) @1 µM; for activity at 10 µM: compound @10 µM, read-out: Rat Brain 2AG % VehCntrl (%) @10 µM
T1 construct: one g rat brain was homogenized using a Polytron homogenizer; from tissue; host or cells: rat brain homogenate
T1 sequence (Q8R431 1-303): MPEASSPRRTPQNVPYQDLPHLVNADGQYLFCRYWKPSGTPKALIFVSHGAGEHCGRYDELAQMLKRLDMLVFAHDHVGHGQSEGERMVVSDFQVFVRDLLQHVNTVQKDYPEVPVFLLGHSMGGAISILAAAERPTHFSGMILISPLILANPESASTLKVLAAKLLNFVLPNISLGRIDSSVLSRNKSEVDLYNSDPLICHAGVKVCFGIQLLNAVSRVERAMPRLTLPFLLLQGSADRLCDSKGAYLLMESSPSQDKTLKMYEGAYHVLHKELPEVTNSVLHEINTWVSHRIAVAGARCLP

[4] = molecular target: T2, wild type MGL (wt-MGLL 6H-11-313) (Homo sapiens, UniProt Q99685); experiment: MGL Enzyme Activity Assay, purified wild type MGL, 4MU-B substrate; assay type: biochemical; details: wild type MGL 5 nM, 4MU-B 10 μM, 37° C.; read-out: MGL wild type inh IC50
T2 construct: purified wild type MGL (wt-MGLL 6H-11-313); 6H (hexahistidine) (N)
T2 sequence (Q99685 1-303): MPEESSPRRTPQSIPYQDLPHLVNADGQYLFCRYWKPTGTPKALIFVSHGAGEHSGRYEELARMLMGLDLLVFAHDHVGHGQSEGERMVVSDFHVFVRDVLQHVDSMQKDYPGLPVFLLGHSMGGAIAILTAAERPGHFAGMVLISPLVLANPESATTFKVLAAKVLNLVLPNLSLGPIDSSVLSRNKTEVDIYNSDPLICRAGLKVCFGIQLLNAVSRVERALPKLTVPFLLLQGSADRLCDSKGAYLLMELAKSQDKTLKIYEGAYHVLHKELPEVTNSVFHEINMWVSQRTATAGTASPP
Experimental: All rate-based assays were performed in black 384-well polypropylene PCR microplates (Abgene) in a total volume of 30 μL. […] Final compound concentrations ranged from 17 to 0.0003 μM.
The IC50 values for the following compounds were determined using Microsoft Office Excel from a fit of the equation to the concentration-response plot of the fractional activity as a function of inhibitor concentration.

[5] = test system: CFA-Induced Paw Radiant Heat Hypersensitivity; experiment: CFA-Induced Paw Radiant Heat Hypersensitivity; assay type: in vivo; details: rat, HPβCD; for Method 2: peak % reversal: individual animal values
Experimental: Each rat was placed in a test chamber on a warm glass surface and allowed to acclimate for approximately 10 min. A radiant thermal stimulus (beam of light) was focused through the glass onto the plantar surface of each hind paw in turn. The thermal stimulus was automatically shut off by a photoelectric relay when the paw was moved or when the cut-off time was reached (20 sec for radiant heat at ˜5 amps). An initial (baseline) response latency to the thermal stimulus was recorded for each animal prior to the injection of complete Freund's adjuvant (CFA). Twenty-four hours following intraplantar CFA injection, the response latency of the animal to the thermal stimulus was re-evaluated and compared to the animal's baseline response time. […] Immediately following the post-CFA latency assessment, the indicated test compound or vehicle was administered orally. Post-compound treatment withdrawal latencies were assessed at fixed time intervals, typically 30, 60, 120, 180, and 300 min.
The percent reversal (% R) of hypersensitivity was calculated in one of two different ways:
1) using group mean values or 2) using individual animal values. More specifically:
Method 1. For all compounds, the % R of hypersensitivity was calculated using the mean value for groups of animals at each time point according to the following formula: % reversal=[(group treatment response−group CFA response)/(group baseline response−group CFA response)]×100 Results were given for the maximum % reversal observed for each compound at any time point tested.
Method 2. For some compounds, the % R of hypersensitivity was calculated separately for each animal according to the following formula: % reversal=[(individual treatment response−individual CFA response)/(individual baseline response−individual CFA response)]×100.
Results are given as a mean of the maximum % reversal values calculated for each individual animal.

[6] = molecular target: T3, mutant MGL (mut-MGLL 11-313 L179S L186S) (Homo sapiens, UniProt Q99685, L169S/L176S); experiment: MGL Enzyme Activity Assay, purified mutant MGL, 4MU-B substrate; assay type: biochemical; details: mutant MGL 5 nM, 4MU-B 10 μM, 37° C.; read-out: MGL mutant inh IC50
T3 construct: purified mutant MGL (mut-MGLL 11-313 L179S L186S)
T3 sequence (Q99685 1-303 L169S/L176S): T2 sequence (Q99685 1-303) with L169S, L176S
Method in brief: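 Purified mutant MGL (5 nM final) with 10 μM 4MU-B in 20 mM PIPES pH 7.0, 150 mM NaCl, 0.001% Tween 20; compounds 17 to 0.0003 μM final. Fluorescence (ex 335/em 440 nm) followed 5 min at 37 °C; IC50 from fit of fractional activity versus inhibitor concentration.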

[7] = molecular target: T4, mutant MGL (Homo sapiens, UniProt Q99685, L169S/L176S); experiment: MGL ThermoFluor Assay - Mutant; assay type: binding; details: 0.07 mg/ml mutant MGL, 100 μM ANS, pH 7.0
T4 construct: purified mutant MGL (mut-MGLL 11-313 L179S L186S)
T4 sequence (Q99685 1-303 L169S/L176S): T2 sequence (Q99685 1-303) with L169S, L176S
Method in brief: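 Thermal-shift binding with 0.07 mg/ml L169S/L176S mutant MGL, 100 μM 1,8-ANS, 200 mM NaCl, 0.001% Tween-20, 50 mM PIPES pH 7.0, heated 40–90 °C at 1 °C/min.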

[8] = test system: murine model of acute inflammation; details: murine model of acute inflammation (Comelli et al.); cited from earlier work
[9] = po, 5 h, 30 mg/kg p.o., group mean values, last time point 300 min (180 min for Cpd 17, 77), read-out: Method 1: peak % reversal
[10] = 30 mg/kg p.o., last time point 300 min (180 min for Cpd 17, 77)

| SMILES | analgesia in tail flick assay [1] | analgesia in hot plate assay, given alone ([2]; 2-AG given alone (Ben-Shabat et al.)) | analgesia in hot plate assay ([2]; intravenous delivery (Lichtman et al.)) | activity at 1 µM [3] | activity at 10 µM [3] | IC50 [4] | inhibition in vivo at 10 mg/kg ([5]; po, 5 h, 10 mg/kg p.o., group mean values, last time point 300 min, read-out: Method 1: peak % reversal) | inhibition in vivo at 30 mg/kg [5, 9] | Method 2: peak % reversal ([5]; 10 mg/kg p.o., last time point 300 min) | Method 2: peak % reversal [5, 10] | IC50 [6] | Kd [7] | antinociceptive effect [8] |
| --- | --- | --- | --- | --- | --- | --- | --- | --- | --- | --- | --- | --- | --- |
| CCCCC/C=C\C/C=C\C/C=C\C/C=C\CCCC(=O)OC(CO)CO [2-AG, 2-arachidinoylglycerol] | produces analgesia | not analgesic | produces analgesia |  |  |  |  |  |  |  |  |  |  |
| O=C(c1ccc(-c2ccc(C(F)(F)F)s2)cc1)N1CC(N2CC(N3Cc4ccccc4C3=O)C2)C1 [Cpd 76, 2-[1′-({4-[5-(Trifluoromethyl)thiophen-2-yl]phenyl}carbonyl)-1,3′-biazetidin-3-yl]-2,3-dihydro-1H-isoindol-1-one] |  |  |  | 204% | 725% | < 0.005 µM | 15.7% | 17.1% | 26.7% | 17.7% | 0.015 µM | 0.01 µM |  |
| O=C(c1ccc2oc(-c3ccccc3)nc2c1)N1CC(N2CC(N3Cc4ccccc4C3=O)C2)C1 [Cpd 77, 2-{1′-[(2-Phenyl-1,3-benzoxazol-5-yl)carbonyl]-1,3′-biazetidin-3-yl}-2,3-dihydro-1H-isoindol-1-one] |  |  |  |  | 478% | 0.031 µM |  | 9.9% |  | 6.9% | 0.016 µM | 0.1 µM |  |
| O=C(c1cc2cc(-c3ccccc3)ccc2s1)N1CC(N2CC(N3Cc4ccccc4C3=O)C2)C1 [Cpd 79, 2-{1′-[(5-Phenyl-1-benzothiophen-2-yl)carbonyl]-1,3′-biazetidin-3-yl}-2,3-dihydro-1H-isoindol-1-one] |  |  |  | 253% | 676% | 0.01 µM |  | 33.7% |  |  | 0.018 µM | 0.0333 µM |  |
| O=C(c1sc2cc(C(F)(F)F)ccc2c1Cl)N1CC(N2CC(N3Cc4ccccc4C3=O)C2)C1 [Cpd 99, 2-(1′-{[3-Chloro-6-(trifluoromethyl)-1-benzothiophen-2-yl]carbonyl}-1,3′-biazetidin-3-yl)-2,3-dihydro-1H-isoindol-1-one] |  |  |  | 449% |  | < 0.005 µM |  | 27.6% |  |  | < 0.005 µM | 0.0027 µM |  |
| O=C(Nc1cccc(-c2ccccc2)c1)OC1CCCCC1 [URB602] |  |  |  |  |  |  |  |  |  |  |  |  | showed an antinociceptive effect |
